In patent publication EP0392384B1, “Targeted forms of methyltrithio antitumor agents” (AMERICAN CYANAMID COMPANY, priority 1989, dated 1990):

Tests used:
[1] = test system: lymphocytic leukemia P388; experiment: Lymphocytic Leukemia P388 Test; type: in vivo, BDF1 female mice; settings: for T/Cx100 %: survival time treated/control
Excerpt: These have been reported in "Cancer Chemotherapy Reports", Part III, Vol. 3, No. 2 (1972), Geran, et. al. These protocols have established standardized screening tests which are generally followed in the field of testing for antitumor agents. Of these systems, lymphocytic leukemia P388, melanotic melanoma B16, L1210 leukemia and colon 26 adenocarcinoma are particularly significant to the present invention. These neoplasms are utilized for testing as transplantable tumors in mice.
The animals used were BDF1 female mice. There were 5 or 6 mice per test group. The tumor transplant was by intraperitoneal injection of 0.5 ml of dilute ascitic fluid containing 1 x 10^6 cells of lymphocytic leukemia P388 on day zero. The test compounds were administered intraperitoneally at a volume of 0.5 ml in sterile, pyrogen free saline on days 1, 5 and 9 (relative to tumor inoculation) at the indicated doses. The mice were weighed and survivors recorded on a regular basis for 30 days. The median survival time and the ratio of survival time for treated (T)/control (C) animals were calculated. Values of T/C greater than or equal to 125 are considered to reflect significant antitumor activity.

[2] = test system: human Burkitt lymphoma cell line Raji TC; experiment: In vivo antitumor test, human tumor xenograft Raji; parameters: species or system athymic (nude) mice; settings: no MoAb, iv, three injections starting on day 7, day 35 post-implantation
[3] = test system: human breast cancer cell line MX-1; experiment: In vivo antitumor test, human tumor xenograft MX-1; parameters: species or system athymic (nude) mice; settings: no MoAb, iv, three injections starting on day 2, day 42 post-implantation
[4] = test system: human colon cancer cell line LS174T; experiment: In vivo antitumor test, human tumor xenograft LS174T; parameters: species or system athymic (nude) mice; settings: no MoAb, iv, three injections started on day 8, day 21 post-implantation
[5] = dose 0.0025 mg/kg intraperitoneally on days 1, 5 and 9
[6] = dose 0.005 mg/kg intraperitoneally on days 1, 5 and 9
[7] = dose 0.00125 mg/kg intraperitoneally on days 1, 5 and 9
[8] = dose 0.010 mg/kg intraperitoneally on days 1, 5 and 9
[9] = dose 0.0006 mg/kg intraperitoneally on days 1, 5 and 9
[10] = dose 0.0003 mg/kg intraperitoneally on days 1, 5 and 9
[11] = dose 0.020 mg/kg intraperitoneally on days 1, 5 and 9
[12] = dose 0.040 mg/kg intraperitoneally on days 1, 5 and 9
[13] = dose 0.080 mg/kg intraperitoneally on days 1, 5 and 9

## 3-Mercaptopropionic Acid Disulfide of LL-E33288γ1^I
[1]; [5]
  T/Cx100 %: 125%
[1]; [6]
  T/Cx100 %: 145%

## 3-Mercaptopropionyl hydrazide disulfide of LL-E33288α2-I
[1]; [7]
  Median Survival: 18.5 days
  T/Cx100 %: 161%
[1]; [5]
  Median Survival: 18.5 days
  T/Cx100 %: 161%
[1]; [6]
  Median Survival: 21.0 days
  T/Cx100 %: 183%
[1]; [8]
  Median Survival: 26.5 days
  T/Cx100 %: 230%

## Hydrazide of 3-mercaptopropionic acid disulfide of N-acetyl LL-E33288δ1^I [Hydrazide alone]
[2]; Drug 1.0 mcg
  S/T: 6/6
  Tumor Size (T/C)%control: 517 %control
[3]; Drug 2.0 mcg
  S/T: 3/6
  Tumor Size (T/C)%control: 71 %control

## N-acetyl LL-E33288δ1^I [reference compound]
[4]; Drug 2.0 mcg
  S/T: 1/6
  Tumor Size (T/C)%control: 32 %control
[2]; Drug 0.5 mcg
  S/T: 6/6
  Tumor Size (T/C)%control: 226 %control
[3]; Drug 1.0 mcg
  S/T: 2/6
  Tumor Size (T/C)%control: 46 %control

## CC[C@]1(O)C[C@H]2CN(CCc3c([nH]c4ccccc34)[C@@](C(=O)OC)(c3cc4c(cc3OC)N(C=O)[C@H]3[C@@](O)(C(=O)OC)[C@H](OC(C)=O)[C@]5(CC)C=CCN6CC[C@]43[C@@H]65)C2)C1 [Vincristine]
[4]; Drug 20 mcg
  S/T: 6/6
  Tumor Size (T/C)%control: 23 %control

## 3-Mercaptobutyryl hydrazide disulfide of LL-E33288γ1-I
[1]; [9]
  Median Survival: 19.5 days
  T/Cx100 %: 130%
[1]; [7]
  Median Survival: 21.0 days
  T/Cx100 %: 140%
[1]; [5]
  Median Survival: 23.0 days
  T/Cx100 %: 153%
[1]; [6]
  Median Survival: 28.5 days
  T/Cx100 %: 190%

## 3-Mercaptoisovaleryl hydrazide disulfide of LL-E33288q1-I
[1]; [10]
  Median Survival: 14.0 days
  T/Cx100 %: 133%
[1]; [9]
  Median Survival: 13.0 days
  T/Cx100 %: 124%
[1]; [7]
  Median Survival: 16.0 days
  T/Cx100 %: 152%
[1]; [5]
  Median Survival: 17.0 days
  T/Cx100 %: 162%
[1]; [6]
  Median Survival: 18.0 days
  T/Cx100 %: 171%
[1]; [8]
  Median Survival: 26.5 days
  T/Cx100 %: 252%

## 3-Mercaptopropionyl hydrazide disulfide of N-acetyl LL-E33288γ1^I
[1]; [11]
  Median Survival: 15.0 days
  T/Cx100 %: 125%
[1]; [12]
  Median Survival: 18.0 days
  T/Cx100 %: 150%
[1]; [13]
  Median Survival: 21.0 days
  T/Cx100 %: 175%
